Data on two compounds can be found in patent US20130253022A1 (FOX CHASE CHEMICAL DIVERSITY CENTER, INC., priority 2010, published 2013).

One may read the EC50 as the concentration at which the effect is half-maximal. By ED50 is commonly meant the dose that gives a 50% effect, or the effect in half of the subjects.

The subject of assay [1] is Hippocampal Cultures. The assay is described as follows: Neuroprotection from hydrogen peroxide (oxidative stress), propidium iodide assay. The note with it: Rattus norvegicus; 10 μM hydrogen peroxide, hippocampal cultures, 4 hour test period; read-out: NP from Hydrogen Peroxide PI EC50. The class given is cell-based. An excerpt: (§1) Cell cultures: All compounds are screened with dissociated hippocampal cultures derived from embryonic day 18 rats as the primary test system. With this preparation, primary neurons are used to test for toxicity as well as neuroprotection in a highly relevant experimental system to epilepsy. In brief, hippocampal tissue are obtained commercially through Brain Bits (Springfield, Ill.) and cultures prepared as previously described by Brewer (Brewer, G. J. Serum-free B27/neurobasal medium supports differentiated growth of neurons from the striatum, substantia nigra, septum, cerebral cortex, cerebellum and dentate gyms, J. Neurosci. Res. 1995, 42, 674-683). The hippocampal neurons are platted at low density (10,000 cell/well) in a 96-well format and maintained in serum-free medium consisting of Neurobasal Medium supplemented with B27 and GlutaMAX (Gibco). Pre-coated poly-L-lysine coated plates are used because of the preferential adherence and survival of hippocampal neurons on this matrix support.
(§2) Potent neuroprotection is the distinguishing characteristic that separates this program's anticonvulsants from all other commercial drugs for epilepsy. The experimental details and the rationale for the implemented assays are essential in differentiating these compounds from that of others. The central objective of all neuroprotective assays was their relevancy to excitotoxicity and oxidative stress related to epilepsy. Both the amount of glutamate and hydrogen peroxide used in the assays, as well as the time of treatment and duration of the experiment, were designed to be relevant to epilepsy. Further, all time parameters employed in these studies were empirically determined to be within the limits of reversible toxic events, yet using amounts of glutamate and hydrogen peroxide that were relevant to the disease. In regard to glutamate toxicity, a critical feature was the duration of treatment of the hippocampal neurons. The rational for using a short 5 min treatment with glutamate was based on the observation of Randall and Thayer (Randall, R. D.; Thayer, S. A. Glutamate-induced calcium transient triggers calcium overload and neurotoxicity in rat hippocampal neurons, J. Neurosci. 1992, 12, 1882-1895). […] The rationale is that this intense burst of glutamate and resulting calcium overload is relevant to seizures and therefore was important data to capture in the screening assay. The amount of glutamate (30 μM) employed in our screening was based on the basal levels of glutamate observed in microdialysis measurements of hippocampus from epileptogenic patients (Cavus et al. Decreased hippocampal volume on MRI is associated with increased extracellular glutamate in epilepsy patients, Epilepsia, 2008, 49, 1358-1366). In regard to hydrogen peroxide, the amount employed (10 μM) was detected in the hippocampus of rats after kainate-induced status epilepticus (Jarrett et. al., Mitochondrial DNA damage and impaired base excision repair during epileptogenesis, Neurobiol. Dis. 2008, 30, 130-138). To produce neural damage and death with these amounts of glutamate and hydrogen peroxide, the cultures were changed to a medium with significant depletion of antioxidant components in the defined medium supplement B-27 just prior to treatment with the compounds. This was performed to obtain a significant and reproducible toxic signal in the hippocampal neurons and because loss of antioxidant control may be a component of epileptogenesis (Waldbaum and Patel, Mitochondria, oxidative stress and temporal lobe epilepsy, Epilepsy Res. 2010 88, 23-45; Wu et al., Mitochondrial DNA mutation-elicited oxidative stress, oxidative damage, and altered gene expression in cultured cells of patients with MERRF syndrome, Mol. Neurobiol. 2010, 41, 256-266). Neuroprotection studies with hydrogen peroxide were conducted with cultures that were between day 12 and day 18. Studies of neuroprotection glutamate were conducted between day 19 and day 22. […]

Assay [2] deals with Hippocampal Cultures. The assay is described as follows: Neuroprotection from glutamate excitotoxicity, propidium iodide (cell death) assay. Format: cell-based. To be noted: Rattus norvegicus; 30 μM glutamate 5 min, hippocampal cultures, 4 hour test period; read-out: NP from Glutamate PI EC50.
Text: as §1, §2

The test system of assay [3] is pentylenetetrazol-induced clonic seizures. The assay is described as follows: Subcutaneous pentylenetetrazol seizure test (scPTZ), mouse. Format: in vivo, Carworth Farms No. 1 mice. The note with it: pentylenetetrazol 85 mg/kg s.c., test compound intraperitoneally, read-out: Mouse PTZ ED50, s.c. As to the method:
(§3) Methods to measure anticonvulsant activity: All tests were conducted by the Anticonvulsant Screening Program (ASP) of the National Institute of Neurological Disease and Stroke at the National Institutes of Health. The subcutaneous pentylenetetrazol (metrazol) seizure test (scPTZ). This model primarily identifies compounds that raise seizure threshold. The behavioral seizure produced is not typical of absence epilepsy but clonic in nature. With some minor exceptions, the pharmacological profile of the scPTZ seizure model is consistent with the human condition. The scPTZ test utilizes a dose of pentylenetetrazol (85 mg/kg in Carworth Farms No. 1 mice and 70 mg/kg in Sprague-Dawley rats). This produces clonic seizures lasting for a period of at least five seconds in 97 percent of animals tested. At the anticipated time of testing the convulsant is administered subcutaneously. The test compound is administered intraperitoneally in mice and orally in rats. Animals are observed over a 30 minute period. Absence of clonic spasms in the observed time period indicates a compound's ability to abolish the effect of pentylenetetrazol on seizure threshold (Swinyard E A. Laboratory evaluation of antiepileptic drugs: review of laboratory methods. Epilepsia, 1969, 10, 107-119).

Assay [4] shares this test system. The assay is described as follows: Subcutaneous pentylenetetrazol seizure test (scPTZ), rat. Format: in vivo, Sprague-Dawley rats. The note with it: pentylenetetrazol 70 mg/kg s.c., test compound orally, read-out: Rat PTZ ED50, s.c. The protocol:
as §3

The test system of assay [5] is Hippocampal Cultures. The assay is described as follows: Neuroprotection from glutamate excitotoxicity, CFDA (neuronal viability) assay. Format: cell-based. To be noted: Rattus norvegicus; 30 μM glutamate 5 min, hippocampal cultures, 4 hour test period; read-out: NP from Glutamate CFDA EC50.
Text: as §1
as §2, with “compounds.” for “compounds. This was performed to obtain a significant and reproducible toxic signal in the hippocampal neurons and because loss of antioxidant control may be a component of epileptogenesis (Waldbaum and Patel, Mitochondria, oxidative stress and temporal lobe epilepsy, Epilepsy Res. 2010 88, 23-45; Wu et al., Mitochondrial DNA mutation-elicited oxidative stress, oxidative damage, and altered gene expression in cultured cells of patients with MERRF syndrome, Mol. Neurobiol. 2010, 41, 256-266). Neuroprotection studies with hydrogen peroxide were conducted with cultures that were between day 12 and day 18. Studies of neuroprotection glutamate were conducted between day 19 and day 22.”

Assay [6] relates to MES-induced seizure spread. The assay is described as follows: Maximal electroshock seizure (MES) test, rat. Format: in vivo, rats. To be noted: po. As to the method: Seizure-related assays, Maximal electroshock test: The most definitive assay for anti-seizure activity is the maximal electroshock (MES) test (Swinyard, E. A. Laboratory evaluation of antiepileptic drugs: review of laboratory methods, Epilepsia, 1969, 10, 107-119). […] With both rodent assays, the duration of action is of high importance as well as the potency of the response.
Methods to measure anticonvulsant activity: All tests were conducted by the Anticonvulsant Screening Program (ASP) of the National Institute of Neurological Disease and Stroke at the National Institutes of Health.
The Maximal Electroshock Seizure (MES) or Maximal Seizure Pattern Test: The MES is a model for generalized tonic-clonic seizures (Putnam and Merritt. Experimental determination of the anticonvulsant properties of some phenyl derivatives. Science 1937, 85, 113-118). It is highly reproducible with consistent endpoints. The behavioral and electrographic seizures generated in this model are consistent with the human disorder. This model identifies those compounds which prevent seizure spread.
In the MES test, an electrical stimulus of 0.2 s in duration (50 mA in mice and 150 mA in rat at 60 Hz) is delivered via corneal electrodes primed with an electrolyte solution containing an anesthetic agent. Mice are tested at 30 minutes and 4 hours following doses of 30, 100 and 300 mg/kg of test compound. Test compounds are administered intraperitoneally to the mice. Rats are tested at time intervals between 0.25 and 4 hours following a standard oral dose of 30 mg/kg. Abolition of the hindlimb tonic extensor component indicates the test compound's ability to inhibit MES-induced seizure spread.
(The maximal electroshock test induces tonic seizures with an electrical stimulus.)

Regarding `NS(=O)(=O)NCC(F)(F)c1ccccc1Cl` [Example 2, 2,2-Difluoro-2-(2-chlorophenyl)-ethyl-1-sulfamide], the 50% effective concentration (EC50) with Hippocampal Cultures [1] stood at 0.1 nM; in the assay with Hippocampal Cultures [2] it was 1 nM; in the assay with Hippocampal Cultures [5] it was 10 nM. Further, the median effective dose (ED50) in assay [3] was determined as 98 mg/kg; in assay [4] it was 48 mg/kg; in assay [6], 30 mg/kg.
With `NS(=O)(=O)NCC(F)(F)c1ccccc1F` [Example 1, 2,2-Difluoro-2-(2-fluorophenyl)-ethyl-1-sulfamide], the EC50 with Hippocampal Cultures [1], in the assay with Hippocampal Cultures [2] and with Hippocampal Cultures [5] was 1 nM in each case. The 50% effective dose (ED50) in assay [3] stood at 108 mg/kg; in assay [4], 107 mg/kg; in assay [6], 30 mg/kg.
